Measured values from patent publication US9006250B2, “4-amino-6-(heterocyclic)picolinates and 6-amino-2-(heterocyclic)pyrimidine-4-carboxylates and their use as herbicides” (Dow AgroSciences, LLC, priority 2013, dated 2015).

Key:
Test in all cases: Postemergence herbicidal activity in direct seeded rice
Type in all cases: in vivo
[1] = test system: CYPES: yellow nutsedge, Cyperus esculentus
Description: (§1) Seeds or nutlets of the desired test plant species were planted in a soil matrix prepared by mixing a loam soil (43 percent silt, 19 percent clay, and 38 percent sand, with a pH of about 8.1 and an organic matter content of about 1.5 percent) and river sand in an 80 to 20 ratio. The soil matrix was contained in plastic pots with a surface area of 139.7 cm^2. When required to ensure good germination and healthy plants, a fungicide treatment and/or other chemical or physical treatment was applied. The plants were grown for 10-17 d in a greenhouse with an approximate 14-h photoperiod which was maintained at about 29° C. during the day and 26° C. during the night. Nutrients and water were added on a regular basis and supplemental lighting was provided with overhead metal halide 1000-Watt lamps as necessary. The plants were employed for testing when they reached the second or third true leaf stage. A weighed amount, determined by the highest rate to be tested, of each test compound was placed in 25 mL glass vials and dissolved in a volume of 97:3 v/v acetone-DMSO to obtain 12× stock solutions. […] The concentrated stock solutions were added to the spray solutions so that the final acetone and DMSO concentrations were 16.2% and 0.5%, respectively. Spray solutions were diluted to the appropriate final concentrations with the addition of 10 mL of an aqueous mixture of 1.5% (v/v) Agri-dex crop oil concentrate. The final spray solutions contained 1.25% (v/v) Agri-dex crop oil concentrate. Compound requirements are based upon a 12 mL application volume at a rate of 187 L/ha. Formulated compounds were applied to the plant material with an overhead Mandel track sprayer equipped with […] nozzles calibrated to deliver 187 L/ha over an application area of 0.503 square meters (m^2) at a spray height of 18 inches ([…]) above average plant canopy height. Control plants were sprayed in the same manner with the solvent blank. The treated plants and control plants were placed in a greenhouse as described above and watered by sub-irrigation to prevent wash-off of the test compounds. After 20-22 days, the condition of the test plants, compared with that of the untreated plants, was determined visually and scored on a scale of 0 to 100 percent where 0 corresponds to no injury and 100 corresponds to complete kill. By applying the well-accepted probit analysis as described by J. Berkson in […], 48, 565 (1953) and by D. Finney in “Probit Analysis” Cambridge University Press (1952), the above data can be used to calculate GR20, GR50, GR80 and GR90 values, which are defined as growth reduction factors that correspond to the effective dose of herbicide required to kill or control 20 percent, 50 percent, 80 percent or 90 percent, respectively, of a target plant.

[2] = test system: LEFCH: Chinese sprangletop, Leptochloa chinensis
Description: as §1

[3] = test system: ORYSK: Oryza sativa
Description: as §1

[4] = test system: CYPIR: rice flatsedge, Cyperus iria
Description: as §1

[5] = test system: ECHCG: barnyardgrass, Echinochloa crus-galli
Description: as §1

[6] = test system: DIGSA: large crabgrass, Digitaria sanguinalis
Description: as §1

[7] = test system: ORYSJ: Oryza sativa
Description: as §1

[8] = test system: BRAPP: broadleaf signalgrass, Brachiaria platyphylla
Description: as §1

[9] = test system: ECHCO: junglerice, Echinochloa colonum
Description: as §1

[10] = test system: SEBEX: hemp sesbania, Sesbania exaltata
Description: as §1

[11] = test system: SCPJU: Japanese bulrush, Scirpus juncoides
Description: as §1

[12] = test system: CYPDI: small-flower flatsedge, Cyperus difformis
Description: as §1

[13] = dose for 50 percent control, probit analysis
[14] = dose for 80 percent control, probit analysis
[15] = dose for 90 percent control, probit analysis
[16] = dose for 20 percent growth reduction, probit analysis

**Q.** For COC(=O)c1nc(-c2ccc3nsnc3c2)c(F)c(N)c1Cl [Compound 11], which “Visual Growth Reduction (%) 21 Days After Application CYPES” value ([1]; 17.5 g ai/ha) is on record?
**A.** D (60-74)

**Q.** What about the “Visual Growth Reduction (%) 21 Days After Application CYPES” value ([1]; 35 g ai/ha) of the same molecule?
**A.** G (0-29)

**Q.** What about the “Visual Growth Reduction (%) 21 Days After Application CYPES” value ([1]; 70 g ai/ha) of the same molecule?
**A.** E (45-59)

**Q.** What about the “GR50 CYPES” value [1, 13] of the same molecule?
**A.** >70 g ai/ha

**Q.** And the “GR80 CYPES” value [1, 14]?
**A.** >70 g ai/ha

**Q.** And the “GR90 CYPES” value [1, 15]?
**A.** >70 g ai/ha

**Q.** And the “Visual Growth Reduction (%) 21 Days After Application LEFCH” value ([2]; 17.5 g ai/ha)?
**A.** G (0-29)

**Q.** And the “Visual Growth Reduction (%) 21 Days After Application LEFCH” value ([2]; 35 g ai/ha)?
**A.** G (0-29)

**Q.** And the “Visual Growth Reduction (%) 21 Days After Application LEFCH” value ([2]; 70 g ai/ha)?
**A.** G (0-29)

**Q.** What about the “GR50 LEFCH” value [2, 13] of the same molecule?
**A.** 114 g ai/ha

**Q.** What about the “GR80 LEFCH” value [2, 14] of the same molecule?
**A.** 186 g ai/ha

**Q.** What about the “GR90 LEFCH” value [2, 15] of the same molecule?
**A.** 239 g ai/ha

**Q.** What about the “Visual Growth Reduction (%) 21 Days After Application ORYSK” value ([3]; 17.5 g ai/ha) of the same molecule?
**A.** G (0-29)

**Q.** And the “Visual Growth Reduction (%) 21 Days After Application ORYSK” value ([3]; 35 g ai/ha)?
**A.** G (0-29)

**Q.** And the “Visual Growth Reduction (%) 21 Days After Application ORYSK” value ([3]; 70 g ai/ha)?
**A.** G (0-29)

**Q.** What about the “GR20 ORYSK” value [3, 16] of the same molecule?
**A.** >70 g ai/ha

**Q.** What about the “Visual Growth Reduction (%) 21 Days After Application CYPIR” value ([4]; 17.5 g ai/ha) of the same molecule?
**A.** G (0-29)

**Q.** And the “Visual Growth Reduction (%) 21 Days After Application CYPIR” value ([4]; 35 g ai/ha)?
**A.** E (45-59)

**Q.** What about the “Visual Growth Reduction (%) 21 Days After Application CYPIR” value ([4]; 70 g ai/ha) of the same molecule?
**A.** F (30-44)

**Q.** And the “GR50 CYPIR” value [4, 13]?
**A.** 78 g ai/ha

**Q.** What about the “GR80 CYPIR” value [4, 14] of the same molecule?
**A.** 212 g ai/ha

**Q.** And the “GR90 CYPIR” value [4, 15]?
**A.** 357 g ai/ha

**Q.** And the “Visual Growth Reduction (%) 21 Days After Application ECHCG” value ([5]; 17.5 g ai/ha)?
**A.** E (45-59)

**Q.** And the “Visual Growth Reduction (%) 21 Days After Application ECHCG” value ([5]; 35 g ai/ha)?
**A.** C (75-84)

**Q.** And the “Visual Growth Reduction (%) 21 Days After Application ECHCG” value ([5]; 70 g ai/ha)?
**A.** B (85-94)

**Q.** And the “GR50 ECHCG” value [5, 13]?
**A.** 6 g ai/ha

**Q.** What about the “GR80 ECHCG” value [5, 14] of the same molecule?
**A.** 37 g ai/ha

**Q.** What about the “GR90 ECHCG” value [5, 15] of the same molecule?
**A.** 98 g ai/ha

**Q.** What about the “Visual Growth Reduction (%) 21 Days After Application DIGSA” value ([6]; 17.5 g ai/ha) of the same molecule?
**A.** E (45-59)

**Q.** And the “Visual Growth Reduction (%) 21 Days After Application DIGSA” value ([6]; 35 g ai/ha)?
**A.** E (45-59)

**Q.** What about the “Visual Growth Reduction (%) 21 Days After Application DIGSA” value ([6]; 70 g ai/ha) of the same molecule?
**A.** D (60-74)

**Q.** What about the “GR50 DIGSA” value [6, 13] of the same molecule?
**A.** 11 g ai/ha

**Q.** And the “GR80 DIGSA” value [6, 14]?
**A.** 628 g ai/ha

**Q.** What about the “GR90 DIGSA” value [6, 15] of the same molecule?
**A.** 5310 g ai/ha

**Q.** What about the “Visual Growth Reduction (%) 21 Days After Application ORYSJ” value ([7]; 17.5 g ai/ha) of the same molecule?
**A.** G (0-29)

**Q.** And the “Visual Growth Reduction (%) 21 Days After Application ORYSJ” value ([7]; 35 g ai/ha)?
**A.** G (0-29)

**Q.** What about the “Visual Growth Reduction (%) 21 Days After Application ORYSJ” value ([7]; 70 g ai/ha) of the same molecule?
**A.** G (0-29)

**Q.** And the “GR20 ORYSJ” value [7, 16]?
**A.** >70 g ai/ha

**Q.** And the “Visual Growth Reduction (%) 21 Days After Application BRAPP” value ([8]; 17.5 g ai/ha)?
**A.** G (0-29)

**Q.** What about the “Visual Growth Reduction (%) 21 Days After Application BRAPP” value ([8]; 35 g ai/ha) of the same molecule?
**A.** G (0-29)

**Q.** And the “Visual Growth Reduction (%) 21 Days After Application BRAPP” value ([8]; 70 g ai/ha)?
**A.** E (45-59)

**Q.** What about the “GR50 BRAPP” value [8, 13] of the same molecule?
**A.** >70 g ai/ha

**Q.** And the “GR80 BRAPP” value [8, 14]?
**A.** >70 g ai/ha

**Q.** What about the “GR90 BRAPP” value [8, 15] of the same molecule?
**A.** >70 g ai/ha

**Q.** What about the “Visual Growth Reduction (%) 21 Days After Application ECHCO” value ([9]; 17.5 g ai/ha) of the same molecule?
**A.** E (45-59)

**Q.** What about the “Visual Growth Reduction (%) 21 Days After Application ECHCO” value ([9]; 35 g ai/ha) of the same molecule?
**A.** D (60-74)

**Q.** And the “Visual Growth Reduction (%) 21 Days After Application ECHCO” value ([9]; 70 g ai/ha)?
**A.** C (75-84)

**Q.** And the “GR50 ECHCO” value [9, 13]?
**A.** 15 g ai/ha

**Q.** And the “GR80 ECHCO” value [9, 14]?
**A.** 107 g ai/ha

**Q.** And the “GR90 ECHCO” value [9, 15]?
**A.** 300 g ai/ha

**Q.** And the “Visual Growth Reduction (%) 21 Days After Application SEBEX” value ([10]; 17.5 g ai/ha)?
**A.** C (75-84)

**Q.** And the “Visual Growth Reduction (%) 21 Days After Application SEBEX” value ([10]; 35 g ai/ha)?
**A.** A (95-100)

**Q.** What about the “Visual Growth Reduction (%) 21 Days After Application SEBEX” value ([10]; 70 g ai/ha) of the same molecule?
**A.** A (95-100)

**Q.** What about the “GR50 SEBEX” value [10, 13] of the same molecule?
**A.** 4 g ai/ha

**Q.** And the “GR80 SEBEX” value [10, 14]?
**A.** 11 g ai/ha

**Q.** What about the “GR90 SEBEX” value [10, 15] of the same molecule?
**A.** 19 g ai/ha

**Q.** What about the “Visual Growth Reduction (%) 21 Days After Application SCPJU” value ([11]; 17.5 g ai/ha) of the same molecule?
**A.** A (95-100)

**Q.** And the “Visual Growth Reduction (%) 21 Days After Application SCPJU” value ([11]; 35 g ai/ha)?
**A.** A (95-100)

**Q.** What about the “Visual Growth Reduction (%) 21 Days After Application SCPJU” value ([11]; 70 g ai/ha) of the same molecule?
**A.** A (95-100)

**Q.** What about the “GR50 SCPJU” value [11, 13] of the same molecule?
**A.** 4 g ai/ha

**Q.** What about the “GR80 SCPJU” value [11, 14] of the same molecule?
**A.** 9 g ai/ha

**Q.** And the “GR90 SCPJU” value [11, 15]?
**A.** 14 g ai/ha

**Q.** And the “Visual Growth Reduction (%) 21 Days After Application CYPDI” value ([12]; 17.5 g ai/ha)?
**A.** A (95-100)

**Q.** And the “Visual Growth Reduction (%) 21 Days After Application CYPDI” value ([12]; 35 g ai/ha)?
**A.** A (95-100)

**Q.** What about the “Visual Growth Reduction (%) 21 Days After Application CYPDI” value ([12]; 70 g ai/ha) of the same molecule?
**A.** A (95-100)

**Q.** And the “GR50 CYPDI” value [12, 13]?
**A.** 6 g ai/ha

**Q.** What about the “GR80 CYPDI” value [12, 14] of the same molecule?
**A.** 11 g ai/ha

**Q.** What about the “GR90 CYPDI” value [12, 15] of the same molecule?
**A.** 16 g ai/ha
